Test results reported in ChEMBL document CHEMBL1201862, “PubChem BioAssay data set” (2004).
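Method: 48-hour compound exposure of cells in 96-well plates, five concentrations, linear interpolation of endpoints. GI50 is the concentration that inhibits growth by half.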 Calls of active or inactive are those of the source. Cut-off read from the data, not from the text of the source: active = GI50 up to about 1.1 µM and inactive = higher. Non-standard residues stand in square brackets, D forms with d. Residues, ends and D or L forms follow the SMILES beside them. ξ: configuration not given here. *: point of attachment. ξHyp = O=C(O)C1CC(O)CN1; Cbz = O=C(OCc1ccccc1)*

How the values were obtained:
Assay in all cases: inhibition of tumour cell growth, NCI panel, 48 h
CAKI-1 = system: CAKI-1
HCC 2998 = system: HCC 2998
HT-29 = system: HT-29
SN12C = system: SN12C
SNB-75 = system: SNB-75
IGROV-1 = system: IGROV-1
NCI/ADR-RES = system: NCI/ADR-RES
LOX IMVI = system: LOX IMVI
PC-3 = system: PC-3
RPMI-8226 = system: RPMI-8226
MCF7 = system: MCF7
MDA-MB-435 = system: MDA-MB-435
MDA-N = system: MDA-N
Hs-578T = system: Hs-578T
CCRF-CEM = system: CCRF-CEM
EKVX = system: EKVX
HOP-62 = system: HOP-62
A498 = system: A498
SK-OV-3 = system: SK-OV-3
Malme-3M = system: Malme-3M

Measured: GI50

CCOC(=O)CCC(NC(=O)c1ccc(Oc2nc3ccccc3nc2C(=O)OCC)cc1)C(=O)OCC (stereo unspecified)
inactive: CAKI-1 > 100 µM | HCC 2998 > 100 µM | HT-29 > 100 µM | SN12C > 100 µM | SNB-75 21.5 µM | IGROV-1 > 100 µM | NCI/ADR-RES 55.1 µM | LOX IMVI > 100 µM | PC-3 > 100 µM | RPMI-8226 > 100 µM | MCF7 > 100 µM | MDA-MB-435 > 100 µM | MDA-N > 100 µM | Hs-578T > 100 µM | CCRF-CEM > 100 µM | EKVX > 100 µM | HOP-62 63 µM

C[C@@]1(O)C2C3CC4C5C3C1[C@](O)(C42)[C@H]5Br (stereo partly specified)
inactive: CAKI-1 > 100 µM | HCC 2998 > 100 µM | HT-29 > 100 µM | SN12C > 100 µM | A498 > 100 µM | IGROV-1 > 100 µM | NCI/ADR-RES > 100 µM | LOX IMVI > 100 µM | PC-3 > 100 µM | MCF7 > 100 µM | MDA-MB-435 > 100 µM | MDA-N > 100 µM | Hs-578T > 100 µM | CCRF-CEM > 100 µM | EKVX > 100 µM | HOP-62 > 100 µM

O=C1OCC2(CO1)CC1C=CC2C1 (stereo unspecified)
inactive: CAKI-1 > 100 µM | HCC 2998 > 100 µM | HT-29 > 100 µM | SN12C > 100 µM | A498 > 100 µM | IGROV-1 > 100 µM | NCI/ADR-RES > 100 µM | SK-OV-3 > 100 µM | LOX IMVI > 100 µM | PC-3 > 100 µM | RPMI-8226 > 100 µM | MCF7 > 100 µM | MDA-MB-435 > 100 µM | Malme-3M > 100 µM | MDA-N > 100 µM | Hs-578T > 100 µM | EKVX > 100 µM | HOP-62 > 100 µM

O=C(c1ccccn1)C1(N2CCCCC2)CCCCC1
inactive: CAKI-1 > 100 µM | HCC 2998 > 100 µM | HT-29 78 µM | SN12C > 100 µM | A498 > 100 µM | IGROV-1 87.7 µM | NCI/ADR-RES 46.5 µM | SK-OV-3 > 100 µM | LOX IMVI > 100 µM | PC-3 > 100 µM | RPMI-8226 50.2 µM | MCF7 > 100 µM | MDA-MB-435 > 100 µM | MDA-N > 100 µM | Hs-578T 15.5 µM | CCRF-CEM > 100 µM | EKVX > 100 µM | HOP-62 > 100 µM

N#C/C(=C\Nc1ccccn1)C(=O)c1ccco1
inactive: CAKI-1 > 100 µM | HCC 2998 > 100 µM | HT-29 > 100 µM | SN12C > 100 µM | SNB-75 > 100 µM | A498 > 100 µM | IGROV-1 > 100 µM | NCI/ADR-RES > 100 µM | SK-OV-3 > 100 µM | LOX IMVI > 100 µM | PC-3 > 100 µM | RPMI-8226 > 100 µM | MCF7 > 100 µM | MDA-MB-435 > 100 µM | Malme-3M > 100 µM | MDA-N > 100 µM | Hs-578T > 100 µM | EKVX > 100 µM | HOP-62 > 100 µM

COc1ccc(NC(=O)/C(=N/NC(N)=S)C2C(=O)NC(=S)NC2=O)c(OC)c1
inactive: CAKI-1 > 100 µM | HCC 2998 > 100 µM | HT-29 > 100 µM | SN12C > 100 µM | SNB-75 > 100 µM | A498 > 100 µM | IGROV-1 > 100 µM | NCI/ADR-RES > 100 µM | SK-OV-3 > 100 µM | LOX IMVI > 100 µM | PC-3 > 100 µM | RPMI-8226 > 100 µM | MCF7 > 100 µM | MDA-MB-435 > 100 µM | Malme-3M > 100 µM | MDA-N > 100 µM | Hs-578T > 100 µM | CCRF-CEM 62.2 µM | EKVX > 100 µM

NC(=O)CNC(=O)C1CC(O)CN1C(=O)OCc1ccccc1 (stereo unspecified) (Cbz-[ξHyp]-Gly-NH2)
inactive: HCC 2998 > 100 µM | HT-29 > 100 µM | SN12C > 100 µM | SNB-75 > 100 µM | A498 > 100 µM | IGROV-1 > 100 µM | NCI/ADR-RES > 100 µM | SK-OV-3 > 100 µM | LOX IMVI > 100 µM | PC-3 > 100 µM | RPMI-8226 > 100 µM | MCF7 > 100 µM | MDA-MB-435 > 100 µM | Malme-3M > 100 µM | MDA-N > 100 µM | Hs-578T > 100 µM | CCRF-CEM > 100 µM | EKVX 41.4 µM | HOP-62 > 100 µM

CN1c2ccccc2S(=O)(=O)n2c(COc3ccc(Cl)cc3)nnc21
inactive: CAKI-1 85.7 µM | HCC 2998 > 100 µM | HT-29 > 100 µM | SN12C > 100 µM | A498 30.5 µM | IGROV-1 > 100 µM | NCI/ADR-RES > 100 µM | SK-OV-3 77.1 µM | LOX IMVI > 100 µM | PC-3 > 100 µM | MCF7 > 100 µM | MDA-MB-435 > 100 µM | MDA-N > 100 µM | Hs-578T 43.4 µM | CCRF-CEM 75.7 µM | EKVX > 100 µM | HOP-62 21.7 µM

S=c1nc(Nc2ccccc2)c2c3c(sc2[nH]1)CCCC3
inactive: CAKI-1 > 100 µM | HCC 2998 > 100 µM | HT-29 > 100 µM | SN12C 56.4 µM | SNB-75 > 100 µM | A498 > 100 µM | IGROV-1 > 100 µM | NCI/ADR-RES > 100 µM | LOX IMVI > 100 µM | PC-3 > 100 µM | RPMI-8226 > 100 µM | MCF7 > 100 µM | MDA-MB-435 > 100 µM | Malme-3M > 100 µM | MDA-N > 100 µM | Hs-578T > 100 µM | EKVX 2.32 µM | HOP-62 > 100 µM

CC(C)C1CC[C@H](C)C[C@@H]1OC(=O)C(C(=O)O[C@H]1C[C@@H](C)CCC1C(C)C)C(O)[C@@H]1OC(C)(C)O[C@H]1C1COC(C)(C)O1 (stereo partly specified)
inactive: CAKI-1 16.3 µM | HCC 2998 13.8 µM | HT-29 13.4 µM | SN12C 16.5 µM | SNB-75 15.7 µM | IGROV-1 16.8 µM | NCI/ADR-RES 20.4 µM | SK-OV-3 26.8 µM | LOX IMVI 16.8 µM | PC-3 > 10 µM | RPMI-8226 16.7 µM | MCF7 8.13 µM | MDA-MB-435 16.6 µM | Malme-3M 17.1 µM | MDA-N 18.5 µM | Hs-578T 15 µM | CCRF-CEM 15 µM | EKVX 20.8 µM | HOP-62 19.7 µM

N#Cc1ccc(-c2nc3c(N)ncnc3o2)cc1
inactive: CAKI-1 > 100 µM | HCC 2998 > 100 µM | HT-29 > 100 µM | SN12C > 100 µM | A498 > 100 µM | IGROV-1 > 100 µM | NCI/ADR-RES > 100 µM | LOX IMVI > 100 µM | PC-3 > 100 µM | RPMI-8226 > 100 µM | MCF7 > 100 µM | MDA-MB-435 > 100 µM | MDA-N > 100 µM | Hs-578T > 100 µM | CCRF-CEM > 100 µM | EKVX > 100 µM | HOP-62 84.7 µM

CCn1c(-c2ccccc2)cs/c1=N\C(P(=O)(O)O)P(=O)(O)O
inactive: CAKI-1 > 100 µM | HCC 2998 > 100 µM | HT-29 > 100 µM | SNB-75 > 100 µM | A498 > 100 µM | IGROV-1 > 100 µM | NCI/ADR-RES > 100 µM | SK-OV-3 > 100 µM | LOX IMVI > 100 µM | PC-3 > 100 µM | RPMI-8226 > 100 µM | MCF7 > 100 µM | MDA-MB-435 > 100 µM | Malme-3M > 100 µM | MDA-N > 100 µM | Hs-578T > 100 µM | CCRF-CEM 2.05 µM | EKVX > 100 µM | HOP-62 > 100 µM

C[n+]1c2ccccc2c(C(=O)NC(CCCNC(=N)N)C(=O)O)c2ccccc21 (stereo unspecified)
inactive: HCC 2998 > 100 µM | HT-29 > 100 µM | SN12C > 100 µM | SNB-75 > 100 µM | A498 > 100 µM | IGROV-1 > 100 µM | NCI/ADR-RES > 100 µM | SK-OV-3 > 100 µM | LOX IMVI > 100 µM | PC-3 > 100 µM | RPMI-8226 > 100 µM | MCF7 > 100 µM | MDA-MB-435 > 100 µM | Malme-3M > 100 µM | MDA-N > 100 µM | Hs-578T > 100 µM | EKVX > 100 µM | HOP-62 > 100 µM

O=c1c2c3c(sc2nc(S)n1-c1ccccc1)CCCc1ccc([N+](=O)[O-])cc1-3
inactive: CAKI-1 > 100 µM | HCC 2998 24.6 µM | HT-29 25.3 µM | SN12C 37.7 µM | A498 41 µM | IGROV-1 14.2 µM | NCI/ADR-RES 25.8 µM | SK-OV-3 > 100 µM | LOX IMVI 19.3 µM | PC-3 59.7 µM | RPMI-8226 22.6 µM | MCF7 36.6 µM | MDA-MB-435 49.5 µM | Malme-3M 35.7 µM | MDA-N 86.5 µM | Hs-578T 87.3 µM | EKVX > 100 µM | HOP-62 35.1 µM

O=C(O)C(Br)C(Br)c1ccccc1[N+](=O)[O-] (stereo unspecified)
inactive: CAKI-1 > 100 µM | HCC 2998 > 100 µM | HT-29 > 100 µM | SN12C > 100 µM | SNB-75 > 100 µM | A498 > 100 µM | IGROV-1 > 100 µM | NCI/ADR-RES > 100 µM | SK-OV-3 > 100 µM | LOX IMVI > 100 µM | PC-3 > 100 µM | RPMI-8226 > 100 µM | MCF7 > 100 µM | MDA-MB-435 > 100 µM | Malme-3M > 100 µM | MDA-N > 100 µM | Hs-578T > 100 µM | EKVX > 100 µM | HOP-62 96.2 µM
